Data on 1 compound can be found in patent US20100298437A1, “USE OF CITRULLINE FOR TREATING UNDERNUTRITION CONDITIONS” (UNIVERSITE RENE DESCARTES-PARIS 5, priority 2006, published 2010).

Each structure is given as a SMILES string.

The conditions of data set [1]: enteral administration, rats with intestinal insufficiency; from FR 03 08349; cited from earlier work.
In the next data set the test system is P70S6kinase. Description: In vivo activation of the mTOR pathway: P70S6kinase by Western Blot in tibialis muscles of undernourished aged rats. Also noted: species or system rat. As to conditions: tibialis muscle. As to the method:
Treatment of animals: Forty male Sprague-Dawley rats aged 19 months (Charles River, L'Arbresle, France) were used. During an acclimatization period of 2 weeks the animals were fed ad libitum with a standard diet (UARA04, Usine d'Alimentation Rationnelle, Villemoisson-sur-Orge). Measurement of the spontaneous ingesta was carried out regularly. After this period 30 rats were subjected to a 50% dietary restriction during 12 weeks. Sacrificing 10 rats, used as a control group (group R), was carried out at the end of the dietary restriction period. The other 20 animals were again fed during one week before being sacrificed. Isonitrogen and isocaloric diets were either a standard diet enriched with citrulline 5 g/kg/d (n=10, group R+CIT), or a standard diet enriched with non essential amino acids (Ala, Gly, His, Asp, Ser in an equimolar ratio) (n=10, group R+AANE). Ten rats make up the control group (A.L); they are fed ad libitum all along the study before being sacrificed. Then the rats are sacrificed. The tibialis muscles are taken and quickly frozen in liquid nitrogen, then stored at −80° C. until analysis.
Extraction of proteins and titration: The muscles are ground in liquid nitrogen with a mortar. The thus obtained powder is weighed, and then taken again in 10 volumes of a solubilization buffer containing a cocktail of phosphatase and protease inhibitors. […]
For orientation: Immunoblotting shows a protein as a band on a membrane.

For data set [2] the following is noted: undernourished aged rats, former studies of the inventors; cited from earlier work.
Data set [3] concerns epitrochlearis. Nature of the data set: Muscle protein synthesis (FSR) measured in vitro on isolated incubated muscle. Also noted: species or system rat. As to conditions: for increase of muscle protein synthesis (FSR): isolated muscle of undernourished adult rats, 2.5 mM citrulline, 2 hours incubation, versus control without citrulline. The protocol: Treatment of animals: Male Sprague-Dawley rats (Charles River Laboratoires, L'Arbresles, France) aged 3 months (n=20) are placed in individual cages in a thermostated atmosphere (23°±1° C.), and subjected to a 12 hr light/dark cycle (dark between 8 a.m.-8 p.m.).
Acclimatization of the rats is carried out during 2 weeks, during which the spontaneous food consumption is measured. The rats are fed a standard diet (A04, UAR, Villemoisson-sur-Orge, France) containing 17% proteins, 3% lipids, 59% carbohydrates and 21% water, fibers, vitamins and minerals. The average dietary intake during this period is 28 g/day for adult rats.
At the end of the acclimatization period, the rats are randomized in 2 groups: a control group made up of rats which are fed ad libitum (AL), and a group which is subjected to dietary restrictions during the same period: the rats are fed at a rate of 50% of spontaneous ingesta during 6 weeks with a 5% protein diet (Walrand S, Chambon-Savanovitch C, Felgines C, Chassagne J, Raul F, Normand B et al. Aging: a barrier to renutrition? Nutritional and immunologic evidence in rats. Am J Clin Nutr 2000; 72:816-824).
Incubated isolated muscles. Muscles were incubated according to a method which had been used previously (Minet-Quinard R, Moinard C, Villie F, Vasson M P, Cynober L. Metabolic pathways implicated in the kinetic impairment of muscle glutamine homeostasis in adult and old glucocorticoid-treated rats. Am J Physiol Endocrinol Metab 2004; 287:E671-E676). Epitrochlearis is used because it is the most suitable for this type of study. […] At the end of the incubation, the muscles are collected and kept at −80° C. until the incorporation of ^13C-phenylalanine is measured by mass spectrometry in order to determine the Fractional Protein Synthesis (FSR) (Guillet C, Boirie Y, Walrand S. An integrative approach to in-vivo protein synthesis measurement: from whole tissue to specific proteins. Curr Opin Clin Nutr Metab Care 2004; 7:531-538). […]

In data set [4] the test system is epitrochlearis. Description: Metabolism of citrulline by isolated incubated muscle (amino acids titrated in incubation medium). In kind it is in vitro ADME, rat. As to conditions: isolated muscle of healthy or undernourished adult rats, no metabolically linked amino acid released in incubation medium (results not shown). The protocol:
Incubated isolated muscles. Muscles were incubated according to a method which had been used previously (Minet-Quinard R, Moinard C, Villie F, Vasson M P, Cynober L. Metabolic pathways implicated in the kinetic impairment of muscle glutamine homeostasis in adult and old glucocorticoid-treated rats. Am J Physiol Endocrinol Metab 2004; 287:E671-E676). Epitrochlearis is used because it is the most suitable for this type of study. After dissection, the epitrochlearis are incubated in 3 mL Krebs-Ringer buffer (119 mM NaCl; 4.8 mM KCl; 1.25 mM MgSO4; 25 mM NaHCO3; 1.24 mM NaHPO4; 1.0 mM CaCl2; 2 mM HEPES, pH 7.4), also containing glucose (8 mM), insulin (0.01 U/ml) and bovine serum albumin (BSA) (0.1% p/v). The muscles are pre-incubated during 30 minutes at 37° C. with 95% O2: 5% CO2. The muscles are then transferred into a tube containing 3 mL incubation medium (with ^13C-phenylalanine (1 mM) with or without 2.5 mM citrulline), and are incubated during 2 hours. At the end of the incubation, the muscles are collected and kept at −80° C. until the incorporation of ^13C-phenylalanine is measured by mass spectrometry in order to determine the Fractional Protein Synthesis (FSR) (Guillet C, Boirie Y, Walrand S. An integrative approach to in-vivo protein synthesis measurement: from whole tissue to specific proteins. Curr Opin Clin Nutr Metab Care 2004; 7:531-538). […]

As to `NC(=O)NCCC[C@H](N)C(=O)O` [L-citrulline], the body weight result in data set [1] is given as “allowed these rats to take on weight again”. The “activity of P70S6 kinase as compared with group R” value in the data set with P70S6kinase (12 weeks 50% dietary restriction, then one week diet enriched with citrulline 5 g/kg/d) is “+417%”. Further, the “activity of P70S6 kinase compared with control group A.L. (in words)” value with P70S6kinase (dietary restriction, then one week enriched diet) is recorded as “not being significantly different”. The protein synthesis level entry in data set [2] is “restore a protein synthesis level which is equivalent to the baseline protein synthesis level among healthy aged rats”. For the same compound, the entries for the “increase of muscle protein synthesis (FSR)” value in the data set on epitrochlearis [3] and with epitrochlearis [3] (listed as citrulline) were “+27%” and “up to 30%”, respectively. Also, in the data set with epitrochlearis [3] (isolated muscles of healthy adult rats, citrulline added in vitro), the “effect on protein synthesis” value is “no effect”. The “metabolism of citrulline by the muscle” value in the data set on epitrochlearis [4] (listed as Citrulline) is “not metabolized”; in the data set on epitrochlearis [4] (listed as citrulline) it was “no capacity to metabolize”.
